# Measured values: patent US20230070338A1, “SHP2 Inhibitor Dosing and Methods of Treating Cancer” (Revolution Medicines, Inc., priority 2020, published 2023)
# Read-outs that look alike come from different tables or passages of the source.
# Columns and labels:
# [1] = RMC-4630-01 phase 1 study: pharmacokinetics in patients; type: in vivo, human; conditions: for AUC(0-t) / Cmax / Tmax / half-life: human, plasma, oral; for Cmax: read-out: Cmax [Mean(CV %)]; for Tmax: read-out: Median Tmax (range)
# From the text: RMC-4630-01 is a phase 1 dose escalation study in patients with advanced cancers that evaluates the safety, pharmacokinetics and pharmacodynamic effects of RMC-4630 as a single agent under two different dose administration schedules; daily dosing and twice weekly dosing.
# The RMC-4630-01 study was initially designed to evaluate two different schedules: a daily dosing schedule and an intermittent dosing schedule (D1, D4 of every week).
# [2] = tested on: circulating KRAS^G12C tumor DNA (ctDNA); assay: Allelic burden of circulating KRAS G12C tumor DNA in patients; type: in vivo, human
# From the text: Allelic burden of circulating KRAS^G12C tumor DNA (ctDNA) has been assessed prior to study and at least once on study in seven patients with tumors harboring KRAS^G12C (FIG. 19). KRAS^G12C DNA was detected in four of seven patients prior to study.
# [3] = 140 mg, 140 mg twice weekly (D1, D4), Cycle/Day 1/1
# [4] = 140 mg, 140 mg twice weekly (D1, D4), Cycle/Day 1/15
# [5] = 200 mg, 200 mg twice weekly (D1, D4), Cycle/Day 1/1
# [6] = 200 mg, 200 mg twice weekly (D1, D4), Cycle/Day 1/15
smiles,measurement,setting,value
Cc1nc(N2CCC3(CC2)CO[C@@H](C)[C@H]3N)c(CO)nc1Sc1ccnc(N)c1Cl [RMC-4630],total exposure over a 24 hour period,[1]; 60 mg daily (putative MTD),14.6 µM·h
same,Mean accumulation (AUC0-24 ratio),"[1]; 140 mg twice weekly (D1, D4), Cycle/Day 1/15",1.3
same,Cmax concentrations compared with the apoptotic threshold,"[1]; 200 mg D1, D2",generally above
same,trough concentrations towards the end of the week,"[1]; 200 mg D1, D2",below those thought to be required for normal tissue recovery
same,Mean accumulation (AUC0-24 ratio),"[1]; 200 mg twice weekly (D1, D2), Cycle/Day 1/15",1.0
same,Mean accumulation (AUC0-24 ratio),"[1]; 200 mg twice weekly (D1, D4), Cycle/Day 1/15",1.1
same,plasma exposure compared with range active in preclinical models,"[1]; both dose levels (140 mg, 200 mg), D1, D4 schedule",within the range anticipated to be biologically active
same,exposure versus dose,[1]; daily dosing,increased approximately proportionally with increasing dose
same,time to steady state of plasma concentrations,[1]; daily dosing,≤ 22 days
same,AUC(0-t),"[1]; 140 mg, 140 mg twice weekly (D1, D4), Cycle/Day 1/1, read-out: AUC0-24 [Mean(CV %)]",10.8 µM·h
same,AUC(0-t),"[1]; 140 mg, 140 mg twice weekly (D1, D4), Cycle/Day 1/1, read-out: AUC0-72 [Mean(CV %)]",19.7 µM·h
same,Cmax,[1]; [3],915 nM
same,Tmax,[1]; [3],2 h
same,half-life,"[1]; 140 mg, 140 mg twice weekly (D1, D4), Cycle/Day 1/1, read-out: Median t1/2 (range) (converted)",28 h
same,AUC(0-t),"[1]; 140 mg, 140 mg twice weekly (D1, D4), Cycle/Day 1/15, read-out: AUC0-24 [Mean(CV %)]",14 µM·h
same,Cmax,[1]; [4],935 nM
same,Tmax,[1]; [4],2 h
same,half-life,"[1]; 140 mg, following a single dose at 140 mg, read-out: median half-life (converted)",~28 h
same,AUC(0-t),"[1]; 200 mg, 200 mg twice weekly (D1, D2), Cycle/Day 1/1, read-out: AUC0-24 [Mean(CV %)]",13.9 µM·h
same,Cmax,"[1]; 200 mg, 200 mg twice weekly (D1, D2), Cycle/Day 1/1",1580 nM
same,Tmax,"[1]; 200 mg, 200 mg twice weekly (D1, D2), Cycle/Day 1/1, time post D2 dosing",3 h
same,AUC(0-t),"[1]; 200 mg, 200 mg twice weekly (D1, D2), Cycle/Day 1/15, read-out: AUC0-24 [Mean(CV %)]",14.5 µM·h
same,Cmax,"[1]; 200 mg, 200 mg twice weekly (D1, D2), Cycle/Day 1/15",1630 nM
same,Tmax,"[1]; 200 mg, 200 mg twice weekly (D1, D2), Cycle/Day 1/15, time post D16 dosing",2 h
same,AUC(0-t),"[1]; 200 mg, 200 mg twice weekly (D1, D4), Cycle/Day 1/1, read-out: AUC0-24 [Mean(CV %)]",17.5 µM·h
same,AUC(0-t),"[1]; 200 mg, 200 mg twice weekly (D1, D4), Cycle/Day 1/1, read-out: AUC0-72 [Mean(CV %)]",39 µM·h
same,Cmax,[1]; [5],1380 nM
same,Tmax,[1]; [5],2 h
same,half-life,"[1]; 200 mg, 200 mg twice weekly (D1, D4), Cycle/Day 1/1, read-out: Median t1/2 (range) (converted)",33 h
same,AUC(0-t),"[1]; 200 mg, 200 mg twice weekly (D1, D4), Cycle/Day 1/15, read-out: AUC0-24 [Mean(CV %)]",18.6 µM·h
same,Cmax,[1]; [6],1230 nM
same,Tmax,[1]; [6],3 h
same,half-life,"[1]; 200 mg, following a single dose at 200 mg, read-out: median half-life (converted)",~33 h
same,half-life,"[1]; po, patients, D1, D4 intermittent schedule, read-out: half-life (estimated) (converted)",25 h
same,accumulation from day 1 to day 15,"[1]; twice weekly intermittent dosing (D1, D4 or D1, D2)",No accumulation
same,allelic frequency of KRAS^G12C,[2]; one patient with colon cancer who had PD,increased
same,circulating KRAS^G12C allele,[2]; three patients with NSCLC and PR or SD as best response,reduction
